The structures appear in SMILES notation. Read-outs that look alike come from different tables or passages of the source. Where only a bound is given, the exact number is not on record here.

For test [1], the target named is T1, mTOR (Homo sapiens, UniProt P42345).
T1 construct: endogenous in cells; host or cells: Jurkat cells (ATCC TIB-152, clone E6-1), lysate
Description: mTOR kinobeads assay (dot blot detection). It is filed as binding. Summed up:
(§1)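 Jurkat cell lysate (5 mg/ml protein) was incubated with test compounds and kinobeads (immobilized phenylthiazole and phenylmorpholin-chromen ligands) for 2 h in the cold with shaking. Bead-bound kinase was SDS-eluted and quantified by antibody dot blot with infrared detection. IC50 values came from dose-response curves.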

Test [2] deals with S6RP serine-240/244 phosphorylation in HEK293T/17 cells. Description: In vitro phospho-S6 cellular assay (pS6RP S240/244). It is filed as cell-based. Particulars: Homo sapiens, Table 6, 2 hours, S6RP Ser240/244, read-out: pS6 (phospho-S6 cell assay data, activity level). In outline:
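HEK293T/17 cells in DMEM with 2% FCS treated with 8 compound concentrations (0.1% DMSO) for 2 h at 37 °C, then lysed. Phospho-S6RP Ser240/244 or phospho-Akt Ser473 quantified by MesoScale sandwich immunoassay with Sulfo-Tag detection; IC50 from variable-slope sigmoidal fit.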

For test [3], the target named is T2, DNA-dependent protein kinase (DNA-PK) (Homo sapiens, UniProt P78527).
T2 construct: endogenous in cells; host or cells: Jurkat cells (ATCC TIB-152, clone E6-1), lysate
Description: kinobeads assay, DNA-PK (dot blot detection). It is filed as binding. Summed up: as §1

Test [4] addresses T3, PI3Kγ (Homo sapiens, UniProt P48736).
T3 construct: endogenous in cells; host or cells: Jurkat cells (ATCC TIB-152) lysate, the only lysate described
Description: kinobeads assay, PI3K gamma (dot blot detection). It is filed as binding. Particulars: Table 4, read-out: Inhibition values (IC50) PI3Kg.

Test [5] deals with T4, PI3Kβ (Homo sapiens, UniProt P42338).
T4 construct: endogenous in cells; host or cells: Jurkat cells (ATCC TIB-152) lysate, the only lysate described
Description: kinobeads assay, PI3K beta (dot blot detection). It is filed as binding. Particulars: Table 4, read-out: Inhibition values (IC50) PI3Kb.

Test [6] deals with T5, PI3K delta (PI3Kd) (Homo sapiens, UniProt O00329).
T5 construct: endogenous in cells; host or cells: Jurkat cells (ATCC TIB-152, clone E6-1), lysate
The test can be described thus: kinobeads assay, PI3K delta (dot blot detection). It is filed as binding. In outline: as §1

For test [7], the target named is T6, PI3Kα (Homo sapiens, UniProt P42336).
T6 construct: endogenous in cells; host or cells: Jurkat cells (ATCC TIB-152) lysate, the only lysate described
The test can be described thus: kinobeads assay, PI3K alpha (dot blot detection). The following applies: Table 4, read-out: Inhibition values (IC50) PI3Ka. It is filed as binding.

The mark [8] stands for this setting: Table 2, Jurkat cell lysate, read-out: Inhibition values (IC50) mTor.
Setting [9] is: Table 4, read-out: Inhibition values (IC50) mTOR.
[10] abbreviates: Table 2, Jurkat cell lysate, read-out: Inhibition values (IC50) DNAPK.
The mark [11] stands for this setting: Table 4, read-out: Inhibition values (IC50) DNAPK.
The mark [12] stands for this setting: Table 2, Jurkat cell lysate, read-out: Inhibition values (IC50) PI3Kd.
Setting [13] is: Table 4, read-out: Inhibition values (IC50) PI3Kd.

T5 sequence (O00329 whole entry): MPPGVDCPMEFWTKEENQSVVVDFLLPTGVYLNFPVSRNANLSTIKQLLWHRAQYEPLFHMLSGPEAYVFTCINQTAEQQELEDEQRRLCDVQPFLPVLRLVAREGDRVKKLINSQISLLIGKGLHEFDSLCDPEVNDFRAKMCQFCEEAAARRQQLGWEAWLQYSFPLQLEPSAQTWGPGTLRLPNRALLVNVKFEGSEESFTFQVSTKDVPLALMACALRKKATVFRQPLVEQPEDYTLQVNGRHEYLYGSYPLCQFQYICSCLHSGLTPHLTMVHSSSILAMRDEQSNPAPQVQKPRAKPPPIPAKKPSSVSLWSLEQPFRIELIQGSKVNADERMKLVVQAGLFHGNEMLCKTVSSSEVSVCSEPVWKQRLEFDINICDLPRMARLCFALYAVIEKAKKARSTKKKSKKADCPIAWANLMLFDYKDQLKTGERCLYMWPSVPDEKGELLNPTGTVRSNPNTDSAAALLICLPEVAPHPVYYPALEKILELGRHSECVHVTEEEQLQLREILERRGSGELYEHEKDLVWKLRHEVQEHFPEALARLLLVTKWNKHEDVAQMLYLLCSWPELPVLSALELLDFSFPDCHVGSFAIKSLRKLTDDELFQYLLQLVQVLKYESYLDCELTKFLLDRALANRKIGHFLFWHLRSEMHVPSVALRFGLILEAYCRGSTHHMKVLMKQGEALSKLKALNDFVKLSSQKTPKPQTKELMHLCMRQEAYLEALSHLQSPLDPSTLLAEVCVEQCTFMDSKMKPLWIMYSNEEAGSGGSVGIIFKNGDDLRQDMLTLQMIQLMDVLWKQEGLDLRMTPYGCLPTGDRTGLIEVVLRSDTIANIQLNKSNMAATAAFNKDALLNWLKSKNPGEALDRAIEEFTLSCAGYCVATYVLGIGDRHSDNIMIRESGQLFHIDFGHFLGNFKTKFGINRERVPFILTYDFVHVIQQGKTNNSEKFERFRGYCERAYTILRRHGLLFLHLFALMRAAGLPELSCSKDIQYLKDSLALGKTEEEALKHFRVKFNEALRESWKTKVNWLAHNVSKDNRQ
T5 sequence (P27986 whole entry partner): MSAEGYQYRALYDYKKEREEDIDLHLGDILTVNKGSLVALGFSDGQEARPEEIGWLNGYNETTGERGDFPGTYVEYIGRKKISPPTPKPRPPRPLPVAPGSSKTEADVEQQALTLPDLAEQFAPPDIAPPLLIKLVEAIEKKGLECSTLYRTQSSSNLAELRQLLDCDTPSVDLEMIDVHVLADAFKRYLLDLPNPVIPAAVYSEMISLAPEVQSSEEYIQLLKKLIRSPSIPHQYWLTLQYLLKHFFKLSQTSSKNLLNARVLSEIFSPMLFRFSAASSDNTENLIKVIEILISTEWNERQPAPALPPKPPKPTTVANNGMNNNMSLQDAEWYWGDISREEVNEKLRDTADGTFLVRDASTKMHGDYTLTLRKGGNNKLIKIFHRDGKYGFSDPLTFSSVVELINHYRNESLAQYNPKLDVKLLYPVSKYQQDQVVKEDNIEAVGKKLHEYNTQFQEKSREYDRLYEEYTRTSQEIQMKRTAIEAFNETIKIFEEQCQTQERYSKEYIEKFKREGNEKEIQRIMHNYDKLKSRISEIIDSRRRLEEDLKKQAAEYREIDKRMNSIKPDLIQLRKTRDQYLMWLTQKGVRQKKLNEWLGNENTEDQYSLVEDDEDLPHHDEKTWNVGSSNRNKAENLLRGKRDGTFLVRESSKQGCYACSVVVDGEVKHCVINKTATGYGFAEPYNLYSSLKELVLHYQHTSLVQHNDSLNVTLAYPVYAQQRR
T4 sequence (P42338 whole entry): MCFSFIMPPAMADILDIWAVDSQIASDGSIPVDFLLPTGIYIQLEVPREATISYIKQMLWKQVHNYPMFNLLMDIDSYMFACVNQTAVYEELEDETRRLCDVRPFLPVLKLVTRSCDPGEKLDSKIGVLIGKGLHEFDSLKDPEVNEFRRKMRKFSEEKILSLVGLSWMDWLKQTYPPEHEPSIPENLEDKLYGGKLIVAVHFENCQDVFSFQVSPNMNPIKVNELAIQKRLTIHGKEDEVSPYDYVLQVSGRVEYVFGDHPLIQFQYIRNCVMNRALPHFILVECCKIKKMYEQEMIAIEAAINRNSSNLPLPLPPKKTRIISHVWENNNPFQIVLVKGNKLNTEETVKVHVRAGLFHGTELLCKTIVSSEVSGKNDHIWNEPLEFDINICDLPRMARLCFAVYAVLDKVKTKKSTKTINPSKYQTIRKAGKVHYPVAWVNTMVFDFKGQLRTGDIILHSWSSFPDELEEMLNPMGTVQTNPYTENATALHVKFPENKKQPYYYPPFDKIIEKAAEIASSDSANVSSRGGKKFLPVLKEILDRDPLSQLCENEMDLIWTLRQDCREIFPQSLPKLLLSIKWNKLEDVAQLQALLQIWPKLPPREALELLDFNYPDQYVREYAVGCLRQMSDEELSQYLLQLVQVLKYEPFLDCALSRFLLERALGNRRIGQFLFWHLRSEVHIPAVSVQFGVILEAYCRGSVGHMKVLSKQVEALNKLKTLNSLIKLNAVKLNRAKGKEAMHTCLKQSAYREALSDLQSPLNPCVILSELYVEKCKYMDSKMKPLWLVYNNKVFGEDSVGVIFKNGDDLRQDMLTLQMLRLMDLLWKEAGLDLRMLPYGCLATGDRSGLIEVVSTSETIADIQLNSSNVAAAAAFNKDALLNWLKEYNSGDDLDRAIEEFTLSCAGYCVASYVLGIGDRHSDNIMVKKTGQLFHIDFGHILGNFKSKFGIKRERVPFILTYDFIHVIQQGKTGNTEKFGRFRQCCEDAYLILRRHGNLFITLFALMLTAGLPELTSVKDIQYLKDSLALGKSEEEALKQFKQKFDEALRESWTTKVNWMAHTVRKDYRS
T4 sequence (P27986 whole entry partner): as the sequence (P27986 whole entry partner) above
T6 sequence (P42336 whole entry): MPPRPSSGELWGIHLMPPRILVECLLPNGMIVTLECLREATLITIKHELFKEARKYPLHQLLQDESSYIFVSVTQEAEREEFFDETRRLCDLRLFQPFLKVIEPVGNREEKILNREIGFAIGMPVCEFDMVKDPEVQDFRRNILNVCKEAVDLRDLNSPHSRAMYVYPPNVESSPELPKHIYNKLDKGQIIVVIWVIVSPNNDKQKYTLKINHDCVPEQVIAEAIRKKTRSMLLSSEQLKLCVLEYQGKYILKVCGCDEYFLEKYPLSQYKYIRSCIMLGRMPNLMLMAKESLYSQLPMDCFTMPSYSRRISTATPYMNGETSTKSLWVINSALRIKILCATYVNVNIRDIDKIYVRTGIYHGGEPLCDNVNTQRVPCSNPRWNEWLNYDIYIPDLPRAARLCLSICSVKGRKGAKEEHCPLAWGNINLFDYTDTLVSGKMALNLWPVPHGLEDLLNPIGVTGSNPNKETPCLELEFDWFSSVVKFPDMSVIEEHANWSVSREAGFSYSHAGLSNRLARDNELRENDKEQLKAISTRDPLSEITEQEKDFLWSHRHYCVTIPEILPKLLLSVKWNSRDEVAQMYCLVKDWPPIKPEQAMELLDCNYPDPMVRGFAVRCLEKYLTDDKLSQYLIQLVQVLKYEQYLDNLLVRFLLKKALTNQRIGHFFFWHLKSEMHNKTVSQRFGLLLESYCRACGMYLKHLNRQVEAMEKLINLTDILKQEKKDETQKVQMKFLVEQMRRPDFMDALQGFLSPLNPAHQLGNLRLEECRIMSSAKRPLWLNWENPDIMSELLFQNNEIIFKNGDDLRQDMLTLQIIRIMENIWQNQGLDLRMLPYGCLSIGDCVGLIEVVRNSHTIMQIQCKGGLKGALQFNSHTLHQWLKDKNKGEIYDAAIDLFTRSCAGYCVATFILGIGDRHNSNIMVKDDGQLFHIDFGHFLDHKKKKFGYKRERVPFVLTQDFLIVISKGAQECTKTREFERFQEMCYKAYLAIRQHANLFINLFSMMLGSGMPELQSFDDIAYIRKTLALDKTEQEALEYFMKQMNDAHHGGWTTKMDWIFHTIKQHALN
T6 sequence (P27986 whole entry partner): as the sequence (P27986 whole entry partner) above
T3 sequence (P48736 whole entry): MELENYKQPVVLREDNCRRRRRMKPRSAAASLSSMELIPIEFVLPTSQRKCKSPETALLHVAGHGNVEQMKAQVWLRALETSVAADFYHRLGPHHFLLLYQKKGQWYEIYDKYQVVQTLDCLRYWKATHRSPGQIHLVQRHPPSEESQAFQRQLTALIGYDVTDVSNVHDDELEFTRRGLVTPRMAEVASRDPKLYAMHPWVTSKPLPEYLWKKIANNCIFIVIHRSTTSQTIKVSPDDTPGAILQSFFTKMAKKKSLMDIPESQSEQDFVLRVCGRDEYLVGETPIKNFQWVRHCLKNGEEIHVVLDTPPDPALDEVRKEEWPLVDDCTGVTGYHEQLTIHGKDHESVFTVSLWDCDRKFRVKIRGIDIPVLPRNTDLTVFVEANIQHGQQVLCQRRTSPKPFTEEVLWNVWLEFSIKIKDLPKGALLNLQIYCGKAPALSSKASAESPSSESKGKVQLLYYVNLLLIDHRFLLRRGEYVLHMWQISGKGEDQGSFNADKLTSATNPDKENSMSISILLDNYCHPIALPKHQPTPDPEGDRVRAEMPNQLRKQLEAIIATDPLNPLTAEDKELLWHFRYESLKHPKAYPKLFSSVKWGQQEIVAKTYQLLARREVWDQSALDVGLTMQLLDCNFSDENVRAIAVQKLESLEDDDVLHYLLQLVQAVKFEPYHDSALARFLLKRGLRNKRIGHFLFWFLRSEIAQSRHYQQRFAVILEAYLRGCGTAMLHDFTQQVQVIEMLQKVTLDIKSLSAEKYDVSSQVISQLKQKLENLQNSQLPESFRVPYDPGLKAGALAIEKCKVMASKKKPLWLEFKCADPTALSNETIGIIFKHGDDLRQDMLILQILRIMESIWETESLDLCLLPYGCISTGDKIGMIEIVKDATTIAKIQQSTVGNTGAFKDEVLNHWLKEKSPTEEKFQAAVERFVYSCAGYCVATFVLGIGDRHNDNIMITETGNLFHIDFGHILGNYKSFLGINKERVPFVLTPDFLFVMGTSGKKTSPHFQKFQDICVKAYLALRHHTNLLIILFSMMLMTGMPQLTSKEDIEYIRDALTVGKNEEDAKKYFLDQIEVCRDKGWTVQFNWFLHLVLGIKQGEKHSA

Turning to `C[C@H]1COCCN1c1cc(-c2cncc(F)c2)nc(-c2ccc(NC(=O)NC3CC3)cc2F)n1` [Example 63, (S)-1-cyclopropyl-3-(3-fluoro-4-(4-(5-fluoropyridin-3-yl)-6-(3-methylmorpholino)pyrimidin-2-yl)phenyl)urea], the IC50 in test [1] (setting [8]) was 1 to 10 µM; in test [1] (setting [9]), 1 to 10 µM; in test [2], 0.1 to 1 µM; in test [3] (setting [10]), at least 10 µM; in test [3] (setting [11]), at least 10 µM; in test [4], at least 10 µM. Moreover, the IC50 in test [5], in test [6] (setting [12]), in test [6] (setting [13]) and in test [7] was at least 10 µM each time.
In the case of `C[C@H](CO)NC(=O)Nc1ccc(-c2cc(-c3cc(F)ccc3S(C)(=O)=O)nc(N3CCOC[C@@H]3C)n2)cc1` [Example 73, 1-(4-(6-(5-fluoro-2-(methylsulfonyl)phenyl)-2-((S)-3-methylmorpholino)pyrimidin-4-yl)phenyl)-3-((R)-1-hydroxypropan-2-yl)urea], the IC50 in test [1] (setting [9]) was 0.1 to 1 µM; in test [2], under 0.1 µM; in test [3] (setting [11]), at least 10 µM; in test [4], at least 10 µM; in test [5] it was at least 10 µM; in test [6] (setting [13]) it was at least 10 µM. In addition, in test [7], the IC50 was at least 10 µM.
Take `CCNC(=O)Nc1ccc(-c2ccnc(N3CCOCC3)n2)cc1` [Example 29, 1-ethyl-3-(4-(2-morpholinopyrimidin-4-yl)phenyl)urea]: the IC50 is 1 to 10 µM in test [1] (setting [8]); 0.1 to 1 µM in test [1] (setting [9]); 0.1 to 1 µM in test [2]; 1 to 10 µM in test [3] (setting [10]); 1 to 10 µM in test [3] (setting [11]); at least 10 µM in test [4]. Besides, the IC50 in test [5] was 1 to 10 µM; in test [6] (setting [12]) it was at least 10 µM; in test [6] (setting [13]), at least 10 µM; in test [7] it was 1 to 10 µM.
Regarding `C[C@H]1COCCN1c1ccnc(-c2ccc(NC(=O)NCC(F)F)cc2)n1` [Example 54, (S)-1-(2,2-difluoroethyl)-3-(4-(4-(3-methylmorpholino)pyrimidin-2-yl)phenyl)urea], the IC50 in test [1] (setting [8]) is 0.1 to 1 µM; in test [1] (setting [9]), 0.1 to 1 µM; in test [2], 0.1 to 1 µM; in test [3] (setting [10]), at least 10 µM; in test [3] (setting [11]), at least 10 µM; in test [4] it was at least 10 µM. Further, the IC50 in test [5], in test [6] (setting [12]), in test [6] (setting [13]) and in test [7] was at least 10 µM each time.
Turning to `C[C@H]1COCCN1c1ccnc(-c2ccc(NC(=O)NCCF)cc2)n1` [Example 55, (S)-1-(2-fluoroethyl)-3-(4-(4-(3-methylmorpholino)pyrimidin-2-yl)phenyl)urea], the IC50 was 0.1 to 1 µM in test [1] (setting [8]); 0.1 to 1 µM in test [1] (setting [9]); 0.1 to 1 µM in test [2]; at least 10 µM in test [3] (setting [10]); at least 10 µM in test [3] (setting [11]); at least 10 µM in test [4]. The IC50 in test [5], in test [6] (setting [12]), in test [6] (setting [13]) and in test [7] was at least 10 µM throughout.
In the case of `O=C(Nc1ccc(-c2ccnc(N3CCOCC3)n2)cc1)NC1CC1` [Example 28, 1-cyclopropyl-3-(4-(2-morpholinopyrimidin-4-yl)phenyl)urea], the IC50 in test [1] (setting [8]) is 1 to 10 µM; in test [1] (setting [9]), 1 to 10 µM; in test [2], 1 to 10 µM; in test [3] (setting [10]) it was at least 10 µM; in test [3] (setting [11]) it was at least 10 µM; in test [4] it was at least 10 µM. For the same molecule, the IC50 in test [5], in test [6] (setting [12]), in test [6] (setting [13]) and in test [7] was at least 10 µM each time.
As to `C[C@H]1COCCN1c1cc(-c2cc(F)ccc2S(C)(=O)=O)nc(-c2ccc(NC(=O)NCCO)cc2F)n1` [Example 72, (S)-1-(3-fluoro-4-(4-(5-fluoro-2-(methylsulfonyl)phenyl)-6-(3-methylmorpholino)pyrimidin-2-yl)phenyl)-3-(2-hydroxyethyl)urea], the IC50 in test [1] (setting [8]) was 0.1 to 1 µM; in test [1] (setting [9]), 0.1 to 1 µM; in test [2], 0.1 to 1 µM; in test [3] (setting [10]), at least 10 µM; in test [3] (setting [11]), at least 10 µM; in test [4], at least 10 µM. Also, the IC50 in test [5], in test [6] (setting [12]), in test [6] (setting [13]) and in test [7] was at least 10 µM each time.
As to `C[C@H]1COCCN1c1cc(-c2cncc(F)c2)nc(-c2ccc(NC(=O)NCCF)cc2F)n1` [Example 67, (S)-1-(3-fluoro-4-(4-(5-fluoropyridin-3-yl)-6-(3-methylmorpholino)pyrimidin-2-yl)phenyl)-3-(2-fluoroethyl)urea], the IC50 is 1 to 10 µM in test [1] (setting [8]); 1 to 10 µM in test [1] (setting [9]); 0.1 to 1 µM in test [2]; at least 10 µM in test [3] (setting [10]); at least 10 µM in test [3] (setting [11]); at least 10 µM in test [4]. Also, the IC50 in test [5], in test [6] (setting [12]), in test [6] (setting [13]) and in test [7] was at least 10 µM throughout.
As for `C[C@H]1COCCN1c1nc(-c2ccc(NC(=O)NC(C)(C)CO)cc2)cc(-c2cc(F)ccc2S(C)(=O)=O)n1` [Example 69, (S)-1-(4-(6-(5-fluoro-2-(methylsulfonyl)phenyl)-2-(3-methylmorpholino)pyrimidin-4-yl)phenyl)-3-(1-hydroxy-2-methylpropan-2-yl)urea], the IC50 was 1 to 10 µM in test [1] (setting [8]); 1 to 10 µM in test [1] (setting [9]); under 0.1 µM in test [2]; at least 10 µM in test [3] (setting [10]); at least 10 µM in test [3] (setting [11]); at least 10 µM in test [4]. In addition, the IC50 in test [5], in test [6] (setting [12]), in test [6] (setting [13]) and in test [7] was at least 10 µM throughout.
On to `O=C(Nc1ccc(-c2ccnc(N3CC4CCC(C3)O4)n2)cc1)NC1CC1` [Example 57, 1-(4-(2-(8-oxa-3-azabicyclo[3.2.1]octan-3-yl)pyrimidin-4-yl)phenyl)-3-cyclopropylurea], for which the IC50 in test [1] (setting [8]) was 1 to 10 µM; in test [1] (setting [9]) it was 1 to 10 µM; in test [2] it was 0.1 to 1 µM; in test [3] (setting [10]), at least 10 µM; in test [3] (setting [11]) it was at least 10 µM; in test [4], at least 10 µM. Also, the IC50 in test [5], in test [6] (setting [12]), in test [6] (setting [13]) and in test [7] was at least 10 µM each time.
Consider `CCNC(=O)Nc1ccc(-c2ccnc(N3CCOC[C@@H]3C)n2)cc1` [Example 38, (S)-1-ethyl-3-(4-(2-(3-methylmorpholino)pyrimidin-4-yl)phenyl)urea], for which the IC50 was 1 to 10 µM in test [1] (setting [8]); 1 to 10 µM in test [1] (setting [9]); 0.1 to 1 µM in test [2]; at least 10 µM in test [3] (setting [10]); at least 10 µM in test [3] (setting [11]); at least 10 µM in test [4]. The IC50 in test [5], in test [6] (setting [12]), in test [6] (setting [13]) and in test [7] was at least 10 µM each time.
`C[C@H]1COCCN1c1nc(-c2ccc(NC(=O)NC3CC3)cc2)cc(-c2cccnc2)n1` [Example 7, (S)-1-cyclopropyl-3-(4-(2-(3-methylmorpholino)-6-(pyridin-3-yl)pyrimidin-4-yl)phenyl)]: the IC50 in test [1] (setting [8]) was 1 to 10 µM; in test [1] (setting [9]), 1 to 10 µM; in test [2] it was 0.1 to 1 µM; in test [3] (setting [10]), at least 10 µM; in test [3] (setting [11]), at least 10 µM; in test [4] it was at least 10 µM. The IC50 in test [5], in test [6] (setting [12]), in test [6] (setting [13]) and in test [7] was at least 10 µM in each case.
Take `O=C(NCCO)Nc1ccc(-c2ccnc(N3CC4CCC(C3)O4)n2)cc1` [Example 59, 1-(4-(2-(8-oxa-3-azabicyclo[3.2.1]octan-3-yl)pyrimidin-4-yl)phenyl)-3-(2-hydroxyethyl)urea]: the IC50 is 1 to 10 µM in test [1] (setting [8]); 1 to 10 µM in test [1] (setting [9]); 0.1 to 1 µM in test [2]; at least 10 µM in test [3] (setting [10]); at least 10 µM in test [3] (setting [11]); at least 10 µM in test [4]. Also, the IC50 in test [5], in test [6] (setting [12]), in test [6] (setting [13]) and in test [7] was at least 10 µM in each case.
With `CCNC(=O)Nc1ccc(-c2ccnc(N3CC4CCC(C3)O4)n2)cc1` [Example 56, 1-(4-(2-(8-oxa-3-azabicyclo[3.2.1]octan-3-yl)pyrimidin-4-yl)phenyl)-3-ethylurea], the IC50 was 1 to 10 µM in test [1] (setting [8]); 1 to 10 µM in test [1] (setting [9]); 0.1 to 1 µM in test [2]; at least 10 µM in test [3] (setting [10]); at least 10 µM in test [3] (setting [11]); at least 10 µM in test [4]. Also, the IC50 in test [5], in test [6] (setting [12]), in test [6] (setting [13]) and in test [7] was at least 10 µM in each case.

These data come from patent US9249129B2, “Morpholino substituted urea derivatives as mTOR inhibitors” (CELLZOME LIMITED, priority 2010, dated 2016).
